Experimental data as given in ChEMBL document CHEMBL3603745, “Synthesis of ciprofloxacin dimers for evaluation of bacterial permeability in atypical chemical space” (Bioorg Med Chem Lett, 2015).
In brackets after ≈: the same amount, converted by molar mass.

Columns and labels:
[1] = Inhibition of Escherichia coli recombinant gyrase A2B2 assessed as reduction of pHOT-1 supercoiling after 90 mins
[2] = test system: Escherichia coli; assay: Antibacterial activity against wild type Escherichia coli ATCC 25922 by broth microdilution method; type: functional
[3] = test system: Escherichia coli; assay: Antibacterial activity against wild type Escherichia coli BW5328/pAH69 by broth microdilution method; type: functional
[4] = test system: Escherichia coli; assay: Antibacterial activity against tolC-deficient Escherichia coli JW5503-1 by broth microdilution method; type: functional
[5] = test system: Escherichia coli; assay: Antibacterial activity against tolC-deficient Escherichia coli NB27005-CDY0039 expressing gyrA S83L […], parC S80I mutant by broth microdilution method; type: functional
[6] = test system: Escherichia coli; assay: Antibacterial activity against wild type Escherichia coli MC4100 by broth microdilution method; type: functional
[7] = test system: Escherichia coli; assay: Antibacterial activity against Escherichia coli imp-4213 by broth microdilution method; type: functional
[8] = test system: Escherichia coli; assay: Antibacterial activity against fluoroquinolone-resistant Escherichia coli CH10 harboring gyrA S83L D87N, parC S80I E84G, AcrA+ by broth microdilution method; type: functional
[9] = test system: Staphylococcus aureus; assay: Antibacterial activity against wild type Staphylococcus aureus ATCC 29213 by broth microdilution method; type: functional
[10] = test system: Staphylococcus aureus; assay: Antibacterial activity against wild type methicillin-susceptible Staphylococcus aureus ATCC 49951 by broth microdilution method; type: functional
[11] = test system: Staphylococcus aureus; assay: Antibacterial activity against fluoroquinolone-resistant Staphylococcus aureus NB01006-AVR005 harboring gyrA S84L, parC S80F, parE E471K by broth microdilution method; type: functional
[12] = test system: Pseudomonas aeruginosa; assay: Antibacterial activity against wild type Pseudomonas aeruginosa PAO1 by broth microdilution method; type: functional
[13] = test system: Pseudomonas aeruginosa; assay: Antibacterial activity against Pseudomonas aeruginosa K1542 deficient with mexX, mexB by broth microdilution method; type: functional
[14] = test system: Pseudomonas aeruginosa; assay: Antibacterial activity against mexX, mexB deficient Pseudomonas aeruginosa NB52023-CDK005 harboring gyrAT83I by broth microdilution method; type: functional
[15] = test system: Pseudomonas aeruginosa; assay: Antibacterial activity against mexX, mexB deficient Pseudomonas aeruginosa NB52023-CDK006 harboring gyrAT83I and parC S87L by broth microdilution method; type: functional

Cc1cc(C(=O)N2CCN(c3cc4c(cc3F)c(=O)c(C(=O)O)cn4C3CC3)CC2)cc(C(=O)N2CCN(c3cc4c(cc3F)c(=O)c(C(=O)O)cn4C3CC3)CC2)c1
IC50 [1]: 1160 nM
MIC [2]: 0.5 µg/mL (≈ 0.62 µM)
MIC [3]: 0.5 µg/mL (≈ 0.62 µM)
MIC [4]: ≤ 0.03 µg/mL
MIC [5]: 16 µg/mL (≈ 19.8 µM)
MIC [6]: 0.5 µg/mL (≈ 0.62 µM)
MIC [7]: ≤ 0.03 µg/mL
MIC [8]: > 32 µg/mL
MIC [9]: 1 µg/mL (≈ 1.24 µM)
MIC [10]: 0.5 µg/mL (≈ 0.62 µM)
MIC [11]: > 32 µg/mL
MIC [12]: 4 µg/mL (≈ 4.96 µM)
MIC [13]: 0.5 µg/mL (≈ 0.62 µM)
MIC [14]: 8 µg/mL (≈ 9.92 µM)
MIC [15]: > 32 µg/mL

O=C(CCN1CCN(c2cc3c(cc2F)c(=O)c(C(=O)O)cn3C2CC2)CC1)NCCOCCOCCNC(=O)CCN1CCN(c2cc3c(cc2F)c(=O)c(C(=O)O)cn3C2CC2)CC1
IC50 [1]: 2140 nM
MIC [2]: 8 µg/mL (≈ 8.71 µM)
MIC [3]: 8 µg/mL (≈ 8.71 µM)
MIC [4]: 1 µg/mL (≈ 1.09 µM)
MIC [5]: > 32 µg/mL
MIC [6]: 8 µg/mL (≈ 8.71 µM)
MIC [7]: 4 µg/mL (≈ 4.35 µM)
MIC [8]: > 32 µg/mL
MIC [9]: > 32 µg/mL
MIC [10]: > 32 µg/mL
MIC [11]: > 32 µg/mL
MIC [12]: > 32 µg/mL
MIC [13]: > 32 µg/mL
MIC [14]: > 32 µg/mL
MIC [15]: > 32 µg/mL

O=C(O)c1cn(C2CC2)c2cc(N3CCN(CCOCCOCCN4CCN(c5cc6c(cc5F)c(=O)c(C(=O)O)cn6C5CC5)CC4)CC3)c(F)cc2c1=O
IC50 [1]: 28200 nM
MIC [2]: 2 µg/mL (≈ 2.57 µM)
MIC [3]: 2 µg/mL (≈ 2.57 µM)
MIC [4]: 0.25 µg/mL (≈ 0.322 µM)
MIC [5]: > 32 µg/mL
MIC [6]: 2 µg/mL (≈ 2.57 µM)
MIC [7]: 0.5 µg/mL (≈ 0.644 µM)
MIC [8]: > 32 µg/mL
MIC [9]: 16 µg/mL (≈ 20.6 µM)
MIC [10]: 16 µg/mL (≈ 20.6 µM)
MIC [11]: > 32 µg/mL
MIC [12]: 32 µg/mL (≈ 41.2 µM)
MIC [13]: 8 µg/mL (≈ 10.3 µM)
MIC [14]: > 32 µg/mL
MIC [15]: > 32 µg/mL

O=C(NCC(=O)N1CCN(c2cc3c(cc2F)c(=O)c(C(=O)O)cn3C2CC2)CC1)c1cccc(C(=O)NCC(=O)N2CCN(c3cc4c(cc3F)c(=O)c(C(=O)O)cn4C3CC3)CC2)c1
IC50 [1]: 3200 nM
MIC [2]: 1 µg/mL (≈ 1.1 µM)
MIC [3]: 2 µg/mL (≈ 2.21 µM)
MIC [4]: 0.25 µg/mL (≈ 0.276 µM)
MIC [5]: > 32 µg/mL
MIC [6]: 2 µg/mL (≈ 2.21 µM)
MIC [7]: 0.25 µg/mL (≈ 0.276 µM)
MIC [8]: > 32 µg/mL
MIC [9]: > 32 µg/mL
MIC [10]: 1 µg/mL (≈ 1.1 µM)
MIC [11]: > 32 µg/mL
MIC [12]: 16 µg/mL (≈ 17.6 µM)
MIC [13]: 2 µg/mL (≈ 2.21 µM)
MIC [14]: 32 µg/mL (≈ 35.3 µM)
MIC [15]: > 32 µg/mL
